In patent US9802912B2, “Cyclic ortho ester fuel additive” (AIRBUS OPERATIONS LIMITED, priority 2013, dated 2017):

What was measured:
[1] = 1H NMR kinetics of acid catalysed hydrolysis of TMOA in AcOH/AcONa buffers; type: physicochemical
Procedure: Five buffers with constant acetic acid (AcOH) concentration and different H^+ concentrations were made by varying the amount of sodium acetate (AcONa) added (see Table 1). As the ionic concentration of the solution has an impact on the rate constant of hydrolysis, sodium chloride was added to keep the ionic strength constant in all 5 buffers.
The reaction samples were prepared directly in 5 mm NMR tube by adding 15 μL of TMOA in 500 μL of acetone-d6. To start the reaction 100 μL of acetic acid/sodium acetate aqueous buffer was added. All chemicals were purchased at the highest level of purity from Sigma Aldrich. Acetone-D6 and TMOA were dried before each experiment by distilling from 3 Å molecular sieve under nitrogen. Sodium chloride and sodium acetate were dried by heating them at T=100° C. for 4 hours under vacuum.
A 300 MHz NMR spectrometer was used to follow the concentration of TMOA with time by acquiring nine sequential ^1H NMR spectra every 10 min (actual delay time=10.38 min). Presaturation solvent suppression technique was used to obscure the H2O signal. An external reference was used by adding to the NMR tube a sealed capillary tube with 3-(trimethylsilyl)-1-propanesulfonic acid sodium salt dissolved in D2O (concentration=0.1966 M).
The TMOA ^1H NMR spectrum consists of two singlets resonating at 3.15 and 1.33 ppm, assigned to the —OCH3 and —CH3 residues, respectively (integrating 3:1—FIG. 7). The relative peak area (RPA—proportional to concentration) was measured by comparing the —CH3 resonance with that of the external reference.
The approach adopted for determining kH+ and kHA, was to exploit the constancy of Ka (=1.75×10^−5 mol/L) whilst varying the numerators (i.e., [A^−] 2→0.1 and pH 5.07→3.74) and maintaining [HA] constant (i.e., 0.192 mol/L). As the overall rate of reaction (equation III) is a summation of both processes described by kH+ and kHA, the rate constant kobs is therefore proportional to the concentration of both associated and dissociated acids (equation IV). rate=kobs[R—C(OR)3] (III) kobs=kH+[H^+]+kHA[HA] (IV)
Given that [HA] is constant, expression IV becomes equivalent to that of a straight line and kH+ and kHA may be determined by plotting kobs vs [H^+]. To obtain kobs however, the rate equation integrated over time (Eq. V) must be used. In[R—C(OR)3]t—In[R—C(OR)3]0=−kobst (V)
^1H NMR spectroscopy is the technique of choice when studying processes which occur on this timescale. Our choice of HA was acetic acid (AcOH), and five buffered solutions with different H^+ concentration were prepared by varying the amount of sodium acetate (AcONa=A^−). For the study, we switched focus from the aldehyde derivative TEOF (5, Scheme 1) used for the proof of concept study to the faster reacting keto-derivative trimethyl orthoacetate (TMOA) 8, Scheme 2 where R=—CH3) for reasons of atom economy (20% lighter).
[H^+] may be plotted (FIG. 5) and a straight line fitted (y=35.464×+1.6×10^−3; R^2=0.993) from which values for the gradient of the slope and y-intercept afford kH+=35.5 min^−1 and, kHA=7.8×10^−3 min^−1 respectively. It is clear that the pathway catalysed by dissociated acid H^+ (specific acid catalysis—scheme 2) is approximately 4500 times faster than the pathway catalysed by undissociated AcOH, within the pH range studied here (3.7→5.0).

[2] = GC measurement of hydrolysis of triethyl orthoformate by water in Jet A-1; type: physicochemical
Procedure: The analyses were performed using an Agilent 5890 gas chromatograph equipped with a flame ionisation detector. The GC column used was of fused silica, HP-5MS, 30 m by 0.25 mm, with a helium flow rate of 1.5 mL/min. The temperature for the detector and injector was fixed at 250° C. The oven temperature used for the analysis was 80° C. for 4 minutes, then it was increased at 20° C./min to 240° C. and held for 2 minutes.
Jet A-1, obtained by Air BP (Batch number BIS/HAL/12/035K), was dried by storing it over 3 Å molecular sieve for at least 24 hours. Standards with different water concentrations were prepared by adding measured volumes of distilled water by SGE μL syringes to 20 ml of anhydrous Jet A-1, taking extra care to inject the water in the middle of the solvent. Each standard was prepared just before use and ultrasonicated for 5 minutes to ensure an equal distribution of water.
A reactant solution was prepared to enable a simple, one-step addition of all the necessary chemicals. […]
For each water standard, the relative peak area (RPA) of ethanol was calculated by dividing the ethanol peak area by the internal standard peak area. […]

reaction with water, completion ([2]; Jet A-1, methane sulfonic acid, 30 minutes) | reaction with water, complete ([2]; Jet A-1, no added acid catalyst, after 2 days) | SMILES | Kobs ([1]; [AcOH]/[AcONa] 0.486, [H+] 8.51 × 10^−6 mol/L) | Kobs ([1]; [AcOH]/[AcONa] 1, [H+] 1.75 × 10^−5 mol/L) | Kobs ([1]; [AcOH]/[AcONa] 2.918, [H+] 5.11 × 10^−5 mol/L) | Kobs ([1]; [AcOH]/[AcONa] 4, [H+] 7.00 × 10^−5 mol/L) | Kobs ([1]; [AcOH]/[AcONa] 10.378, [H+] 1.82 × 10^−4 mol/L) | kHA (general acid catalysis, undissociated AcOH) ([1]; from y-intercept of kobs v. [H+], [HA] 0.192 mol/L) | kH+ (specific acid catalysis) ([1]; gradient of kobs v. [H+], pH 3.7-5.0) | rate of pathway catalysed by H+ relative to pathway catalysed by undissociated AcOH ([1]; pH 3.7-5.0)
– | – | COC(C)(OC)OC [TMOA, trimethyl orthoacetate] | 0.0016 min⁻¹ | 0.0024 min⁻¹ | 0.0036 min⁻¹ | 0.0042 min⁻¹ | 0.008 min⁻¹ | 0.0078 min⁻¹ | 35.5 min⁻¹ | approximately 4500 times
100% | 60-75% | CCOC(OCC)OCC [compound 5, triethyl orthoformate] | – | – | – | – | – | – | – | –
